In patent US6060473A, “7-azabicyclo[2.2.1]-heptane and -heptene derivatives as cholinergic receptor ligands” (priority 1996, dated 2000):
Read-outs that look alike come from different tables or passages of the source.

What was measured:
[1] = molecular target: T1, acetylcholine nicotinic receptor (Rattus norvegicus, UniProt P09483+P12390); test: Nicotinic receptor binding, [3H]-NMCI radioligand, rat cortex (Table 6)
T1 construct: rat cortex as the tissue substrate; from tissue; host or cells: rat cortex
Protocol: 7-Aza-bicyclo[2.2.1]-heptanes and -heptenes were evaluated for their ability to bind to the acetylcholine nicotinic receptor using a standard binding assay, e.g. X. Zhang and A. Nordberg, Arch. Pharmacol., 348, 28 (1993); R. E. Middleton and J. B. Cohen, Biochemistry, 30, 6987 (1991), with nicotine sulfate as the reference compound, rat cortex as the tissue substrate, and a [^3 H]-NMCI radioligand.

[2] = Tail-flick assay (Tables 7 and 8, species not stated per value); assay type: in vivo, mice and rats; details: for ED50: Mus musculus, sc, 5 min, read-out: Tail-Flick Assay ED50; for Tail-Flick Assay % Effect after 5 min: Table 7, 5 min; for Tail-Flick Assay % Effect after 5 min / Tail-Flick Assay % Effect after 60 min: head also prints ED50 (mg/kg); for Tail-Flick Assay % Effect after 60 min: Table 7, 60 min
Protocol: (§1) Female CD-1 mice (20-25 g, Charles River Labs) and male CD rats (300-400 g, Charles River Labs) were housed in groups of two and five, respectively. Animals were given food and water ad libitum. Most studies were performed using groups of 5 animals per treatment unless otherwise noted.
(§2) Antinociceptive effects (i.e., analgesia) of test compounds in mice and rats were measured by the tail-flick test using a tail-flick analgesia meter (EMDIE Instrument Co.). A maximum latency of 10 sec was imposed if no response occurred within that time. Antinociceptive activity, measured as % MPE, was calculated as [(test-control)/(10-control)×100)].
(§3) Duration of compound and (-)-nicotine-induced antinociception was assessed in mice by measuring antinociception at 2, 5, 10, 20 min after compound (20 μg/kg, s.c.) or nicotine (5 mg/kg, s.c.).
Mice (7/group) or rats were pretreated i.v. (0.9% saline or antagonist, mecamylamine, hexamethonium, atropine, naloxone or yohimbine) 10 minutes before administration of compound or nicotine at different doses. […]

[3] = Straub-Tail assay (Table 5); assay type: in vivo
From the text: A wide variety of biological assays have been used to evaluate the ability of a compound to act as an analgesic. Any of these known assays can be used to evaluate the analgesic ability of the compounds disclosed herein. The Straub-tail reaction, which is characteristic of opiate alkaloids, has been used as an assay for opiate agonists and antagonists. The assay is described in detail in Br. J. of Pharmacol. 1969, 36, 225. Another accepted assay for analgesic activity is the hot plate analgesia assay, described in J. of Pharmacol. Exp. Therap. 1953, 107, 385. An assay for the evaluation of the ability of a compound to bind to an opiate receptor is described in Mol. Pharmacol. 1974, 10, 868.
Table 5 provides the analgesic activity measured as ED50 (μg/Kg) for selected compounds disclosed herein, as determined using the Straub-Tail assay, as describe by J. Daily et al. J. Am. […] Chem. Soc. 1992, 114, 3475; T. Li, et al. Bioorganic and Medicinal Chemistry Letters 1993, 3, 2759.

[4] = molecular target: T2, nicotinic cholinergic receptor (Rattus norvegicus, UniProt P09483+P12390); test: Competition with [3H](-)-cytisine for binding to rat cortex (brain) receptors (Tables 7, 8, 9)
T2 construct: A membrane fraction from rat brain cortex; tissue Harlan Laboratories; host or cells: rat brain cortex membranes
From the text: [^3 -H](-)-Cytisine is a nicotinic cholinergic receptor ligand that binds with high affinity to the a4b2 subtype receptor, the major subtype in rodent brain accounting for >90% of (-)-nicotine binding sites (Flores, et al., 1992; Whiting, et al., 1992). This nicotinic receptor subtype is most sensitive to (-)-nicotine compared to other receptor subtypes (Connolly, et al., (1992). Compounds that compete with cytisine for the nicotinic cholineric receptor are considered nicotine receptor agonists.
A membrane fraction from rat brain cortex (Harlan Laboratories) was prepared using an adaptation of an established method (Pabreza, et al., 1991). Compound and [^3 H]-(-)-cytisine (New England Nuclear, 42 Ci/mmol) were mixed before addition of membrane (0.5 mg protein) and incubated in glass tubes for 75 minutes on ice; total assay volume was 0.24 ml. Parallel assays to determine nonspecific binding were incubated in the presence of 10 uM (-)-nicotine (Sigma). Bound radioactivity was isolated by vacuum filtration onto glass microfiber filters (Whatman, GF-B) using millipore tubs, followed by 3×4 ml buffer wash. Filters were prerinsed with 0.5% polyethyleneimine prior to sample filtration to reduce nonspecific binding. Bound radioactivity was quantitated by scintillation counting.

[5] = Tail-flick assay, rat (Table 9); assay type: in vivo; details: sc, 5 min
Protocol: as §1, §2
(§4) Mice (7/group) or rats were pretreated i.v. (0.9% saline or antagonist, mecamylamine, hexamethonium, atropine, naloxone or yohimbine) 10 minutes before administration of compound or nicotine at different doses. A control response (1.5-4 sec) was determined for each animal before treatment and test latencies were assessed at 5 minutes after compound administration (5 ml/kg, s.c.) or 2 min after nicotine (5 ml/kg, s.c.).

[6] = Tail-flick assay, mouse (Table 9); assay type: in vivo; details: sc, 5 min
Protocol: as §1, §2, §3, §4

[7] = opiate antagonist naloxone; cited from earlier work
[8] = tested on: nicotinic cholinergic receptor; details: in words; cited from earlier work
a4b2 subtype receptor = details: in words; cited from earlier work
[9] = Table 7, rat brain cortex membranes, read-out: Nicotine Receptor Cytisine IC50
[10] = Table 9, read-out: rat brain, 3H-cytisine binding IC50

Q: For CN1C2CCC1C(c1ccc(Cl)nc1)C2 (stereo not shown), which Inhibition % ([1]; testing level 10^-9) is on record?
A: Its Inhibition % is 22%.

Q: And the Inhibition % ([1]; testing level 10^-11)?
A: Its Inhibition % is 5%.

Q: Which Inhibition % ([1]; testing level 10^-9) does the source give for c1cncc(C2CC3CCC2N3)c1 (stereo not shown) here?
A: The Inhibition % was 103%.

Q: Which Inhibition % ([1]; testing level 10^-9) does the source give for C[N+]1(C)C2CCC1C(c1ccc(Cl)nc1)C2 (stereo not shown) here?
A: The Inhibition % was 49%.

Q: For N=CN1C2CCC1C(c1ccc(Cl)nc1)C2 (stereo not shown), which Inhibition % ([1]; testing level 10^-9) is on record?
A: Its Inhibition % is 49%.

Q: And the Inhibition % ([1]; testing level 10^-11)?
A: The Inhibition % was 22%.

Q: With N=CN1C2CCC1C(c1cccnc1)C2 (stereo not shown) as the compound, how does the Inhibition % ([1]; testing level 10^-9) read?
A: The Inhibition % was 5%.

Q: For Cc1cc(C2CC3CCC2N3)on1 (stereo not shown), which ED50 [2] is on record?
A: Its ED50 is greater than 2 mg/kg.

Q: Which ED50 ([2]; Table 8) does the source give for Cc1cc(C2CC3CCC2N3C)on1 (stereo not shown) here?
A: The ED50 was roughly 1 mg/kg.

Q: For c1ccc2nc(C3CC4CCC3N4)ccc2c1 (stereo not shown), which ED50 [2] is on record?
A: Its ED50 is greater than 2 mg/kg.

Q: Which ED50 [3] does the source give for Clc1ccc([C@H]2C[C@H]3CC[C@@H]2N3)cn1 (relative stereo) here?
A: Its ED50 is greater than 0.1 mg/kg.

Q: Which “effect at 1000 μg/Kg” value ([3]; @ 1000 (μg/Kg)) does the source give for Clc1ccc([C@@H]2C[C@H]3CC[C@@H]2N3CC2CC2)cn1 (relative stereo) here?
A: Its value is 100%.

Q: With C[N+]1(C)[C@@H]2CC[C@H]1[C@H](c1ccc(Cl)nc1)C2 (relative stereo) as the compound, how does the ED50 ([3]; read-out: ED50) read?
A: Its ED50 is 0.1 to 0.2 mg/kg.

Q: With Fc1ccc([C@H]2C[C@H]3CC[C@@H]2N3)cn1 (relative stereo) as the compound, how does the ED50 ([3]; read-out: ED50) read?
A: Its ED50 is roughly 0.01 mg/kg.

Q: With N=CN1[C@@H]2CC[C@H]1[C@H](c1ccc(Cl)nc1)C2 (relative stereo) as the compound, how does the “effect at 100” value ([3]; @ 100 (dose unit not given; column μg/Kg)) read?
A: The value was 99%.

Q: With Cc1nnc([C@H]2C[C@H]3CC[C@@H]2N3C)o1 (relative stereo) as the compound, how does the “Tail-Flick Assay % Effect after 5 min” value [2] read?
A: The value was -2.9%.

Q: What about the “Tail-Flick Assay % Effect after 60 min” value [2] of the same compound?
A: The value was -3.6%.

Q: What about the IC50 [4, 9] of the same compound?
A: The IC50 was 32000 nM.

Q: With Cc1nnc([C@@H]2C[C@H]3CC[C@@H]2N3C)o1 (relative stereo) as the compound, how does the “Tail-Flick Assay % Effect after 5 min” value [2] read?
A: The value was 6.7%.

Q: What about the “Tail-Flick Assay % Effect after 60 min” value [2] of the same compound?
A: Its value is 24.6%.

Q: What about the IC50 [4, 9] of the same compound?
A: Its IC50 is 150 nM.

Q: For Cc1noc([C@@H]2C[C@H]3CC[C@@H]2N3C)n1 (relative stereo) [racemic A/B, (±)-exo-2-(3-methyl-1,2,4-oxadiazol-5-yl)-7-methyl-7-azabicyclo[2.2.1]heptane], which ED50 [5] is on record?
A: Its ED50 is 2.2 mg/kg.

Q: What about the ED50 [6] of the same compound?
A: Its ED50 is 0.2 mg/kg.

Q: What about the IC50 [4, 10] of the same compound?
A: The IC50 was 100 nM.

Q: Which IC50 [4, 10] does the source give for Cc1noc([C@@H]2C[C@H]3CC[C@@H]2N3C)n1 (single isomer, unassigned) [A] here?
A: Its IC50 is 1400 nM.

Q: For Cc1noc([C@@H]2C[C@H]3CC[C@@H]2N3C)n1 (single isomer, unassigned) [B], which IC50 [4, 10] is on record?
A: Its IC50 is 18 nM.

Q: What does the source list for Clc1ccc([C@@H]2C[C@H]3CC[C@@H]2N3)cn1 (single isomer, unassigned) [epibatidine, exo-2-(2-chloro-5-pyridyl)-7-azabicyclo [2.2.1]heptane]?
A: reversal of Straub-tail effect by naloxone [7]: not reversed by the opiate antagonist naloxone; nicotinic cholinergic receptor agonism [8]: nicotinic cholinergic receptor agonist

Q: Which ED50 [3] does the source give for Clc1ccc(C2CC3CCC2N3)cn1 (stereo not shown) [1-epibatidine] here?
A: Its ED50 is 0.009 mg/kg.

Q: For O=c1cccc2n1C[C@@H]1CNC[C@H]2C1 [[^3 -H](-)-Cytisine], which “affinity to a4b2 subtype receptor” value (a4b2 subtype receptor) is on record?
A: The value was “high affinity”.

Q: For Clc1ccc([C@@H]2C[C@H]3CC[C@@H]2N3)cn1 [d-epibatidine], which ED50 [3] is on record?
A: Its ED50 is 0.0075 mg/kg.
